The numbers were not newly measured in patent EP0209897A2, “Peptide enzyme inhibitors” (Merck & Co., Inc., priority 1985, dated 1987), which cites them from elsewhere.

The subject of the data set is hog renin. The following applies: after the injection of hog renin into nephrectomized rats; Gross et al., Science 175:656, 1971.

For the substance Pepstatin, the “blood pressure in vivo” value is “reduce blood pressure”.
